Data from PubChem BioAssay (NCI).
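Cells were grown in 96-well plates and exposed to each compound for 48 hours at five concentrations; endpoints were interpolated linearly between bracketing concentrations, or set to the highest concentration if not reached. The concentration for 50% growth inhibition is given as GI50. The concentration for full growth arrest is given as TGI.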

Legend:
Assay in all cases: NCI tumour cell line growth inhibition, 48 h
HOP-92 NSCLC = test system: HOP-92 NSCLC
SF-295 CNS = test system: SF-295 CNS
SNB-75 CNS = test system: SNB-75 CNS
COLO 205 colon = test system: COLO 205 colon
SF-268 CNS = test system: SF-268 CNS
SK-MEL-5 melanoma = test system: SK-MEL-5 melanoma
HL-60(TB) leukemia = test system: HL-60(TB) leukemia
NCI-H226 lung = test system: NCI-H226 lung
NCI/ADR-RES ovarian = test system: NCI/ADR-RES ovarian
MALME-3M melanoma = test system: MALME-3M melanoma
NCI-H522 lung = test system: NCI-H522 lung
IGROV1 ovarian = test system: IGROV1 ovarian
UACC-257 melanoma = test system: UACC-257 melanoma
A549 NSCLC = test system: A549 NSCLC
TK-10 renal = test system: TK-10 renal
MDA-MB-468 breast = test system: MDA-MB-468 breast
HS 578T breast = test system: HS 578T breast
UACC-62 melanoma = test system: UACC-62 melanoma
SNB-19 CNS = test system: SNB-19 CNS
K-562 leukemia = test system: K-562 leukemia
NCI-H23 lung = test system: NCI-H23 lung
OVCAR-3 ovarian = test system: OVCAR-3 ovarian
LOX IMVI melanoma = test system: LOX IMVI melanoma
SK-MEL-28 melanoma = test system: SK-MEL-28 melanoma
SN12C renal = test system: SN12C renal
MOLT-4 leukemia = test system: MOLT-4 leukemia
MDA-MB-435 = test system: MDA-MB-435
DU-145 prostate = test system: DU-145 prostate
HCC-2998 colon = test system: HCC-2998 colon
EKVX NSCLC = test system: EKVX NSCLC
KM12 colon = test system: KM12 colon
U251 CNS = test system: U251 CNS
SK-MEL-2 melanoma = test system: SK-MEL-2 melanoma
MCF7 breast = test system: MCF7 breast
M14 melanoma = test system: M14 melanoma
OVCAR-8 ovarian = test system: OVCAR-8 ovarian
SW-620 colon = test system: SW-620 colon
ACHN renal = test system: ACHN renal
HOP-62 NSCLC = test system: HOP-62 NSCLC
CAKI-1 renal = test system: CAKI-1 renal
SK-OV-3 ovarian = test system: SK-OV-3 ovarian
OVCAR-5 ovarian = test system: OVCAR-5 ovarian
BT-549 breast = test system: BT-549 breast
PC-3 prostate = test system: PC-3 prostate
UO-31 renal = test system: UO-31 renal
OVCAR-4 ovarian = test system: OVCAR-4 ovarian
MDA-MB-231 breast = test system: MDA-MB-231 breast
RPMI-8226 leukemia = test system: RPMI-8226 leukemia
A498 renal = test system: A498 renal
HCT-15 colon = test system: HCT-15 colon
786-0 renal = test system: 786-0 renal
HCT-116 colon = test system: HCT-116 colon
SF-539 CNS = test system: SF-539 CNS
CCRF-CEM leukemia = test system: CCRF-CEM leukemia
RXF 393 renal = test system: RXF 393 renal

`O=C(NN1C(=O)/C(=C/C=C/c2ccc([N+](=O)[O-])o2)SC1=S)c1ccc(O)cc1` showed a GI50 (HOP-92 NSCLC) of 1630 nM, a TGI (HOP-92 NSCLC) of 3690 nM and a GI50 (SF-295 CNS) of 2040 nM. The TGI (SF-295 CNS) was 4590 nM, the GI50 (SNB-75 CNS) was 1310 nM and the TGI (SNB-75 CNS) was 4380 nM. It also gave a GI50 (COLO 205 colon) of 1730 nM, a TGI (COLO 205 colon) of 3350 nM and a GI50 (SF-268 CNS) of 1970 nM. For the same compound, the TGI (SF-268 CNS) was 4340 nM, the GI50 (SK-MEL-5 melanoma) was 1120 nM and the TGI (SK-MEL-5 melanoma) was 2340 nM. It also gave a GI50 (HL-60(TB) leukemia) of over 100000 nM, a TGI (HL-60(TB) leukemia) of over 100000 nM and a GI50 (NCI-H226 lung) of 690 nM. It also gave a TGI (NCI-H226 lung) of 2280 nM, a GI50 (NCI/ADR-RES ovarian) of 2200 nM and a TGI (NCI/ADR-RES ovarian) of 5210 nM. It also gave a GI50 (MALME-3M melanoma) of 246 nM, a TGI (MALME-3M melanoma) of 558 nM and a GI50 (NCI-H522 lung) of 217 nM. The TGI (NCI-H522 lung) was 498 nM, the GI50 (IGROV1 ovarian) was 1460 nM and the TGI (IGROV1 ovarian) was 2820 nM. The GI50 (UACC-257 melanoma) was 1690 nM, the TGI (UACC-257 melanoma) was 3500 nM and the GI50 (A549 NSCLC) was 3780 nM. The TGI (A549 NSCLC) was 16300 nM, the GI50 (TK-10 renal) was 1830 nM and the TGI (TK-10 renal) was 3510 nM. It also gave a GI50 (MDA-MB-468 breast) of 1720 nM, a TGI (MDA-MB-468 breast) of 3580 nM and a GI50 (HS 578T breast) of 2520 nM. It also gave a TGI (HS 578T breast) of 8640 nM, a GI50 (UACC-62 melanoma) of 1050 nM and a TGI (UACC-62 melanoma) of 2260 nM. The GI50 (SNB-19 CNS) was 1920 nM, the TGI (SNB-19 CNS) was 3900 nM and the GI50 (K-562 leukemia) was over 100000 nM. For the same compound, the TGI (K-562 leukemia) was over 100000 nM, the GI50 (NCI-H23 lung) was 1270 nM and the TGI (NCI-H23 lung) was 2690 nM. It also gave a GI50 (OVCAR-3 ovarian) of 1680 nM, a TGI (OVCAR-3 ovarian) of 3140 nM and a GI50 (LOX IMVI melanoma) of 185 nM. It also gave a TGI (LOX IMVI melanoma) of 358 nM, a GI50 (SK-MEL-28 melanoma) of 1670 nM and a TGI (SK-MEL-28 melanoma) of 3100 nM. It also gave a GI50 (SN12C renal) of 344 nM, a TGI (SN12C renal) of 1630 nM and a GI50 (MOLT-4 leukemia) of over 100000 nM. The TGI (MOLT-4 leukemia) was over 100000 nM, the GI50 (MDA-MB-435) was 1130 nM and the TGI (MDA-MB-435) was 2510 nM. For the same compound, the GI50 (DU-145 prostate) was 2350 nM, the TGI (DU-145 prostate) was 5790 nM and the GI50 (HCC-2998 colon) was 1780 nM. For the same compound, the TGI (HCC-2998 colon) was 3320 nM, the GI50 (EKVX NSCLC) was 1570 nM and the TGI (EKVX NSCLC) was 3190 nM. The GI50 (KM12 colon) was 1930 nM, the TGI (KM12 colon) was 4290 nM and the GI50 (U251 CNS) was 1750 nM. It also gave a TGI (U251 CNS) of 3520 nM, a GI50 (SK-MEL-2 melanoma) of 1420 nM and a TGI (SK-MEL-2 melanoma) of 2990 nM. The GI50 (MCF7 breast) was 1410 nM, the TGI (MCF7 breast) was 3190 nM and the GI50 (M14 melanoma) was 316 nM. The TGI (M14 melanoma) was 1350 nM, the GI50 (OVCAR-8 ovarian) was 1300 nM and the TGI (OVCAR-8 ovarian) was 3400 nM. The GI50 (SW-620 colon) was 307 nM, the TGI (SW-620 colon) was 996 nM and the GI50 (ACHN renal) was 1770 nM. For the same compound, the TGI (ACHN renal) was 3220 nM, the GI50 (HOP-62 NSCLC) was 1890 nM and the TGI (HOP-62 NSCLC) was 3600 nM. It also gave a GI50 (CAKI-1 renal) of 1500 nM, a TGI (CAKI-1 renal) of 2900 nM and a GI50 (SK-OV-3 ovarian) of 2490 nM. For the same compound, the TGI (SK-OV-3 ovarian) was 5960 nM, the GI50 (OVCAR-5 ovarian) was 1800 nM and the TGI (OVCAR-5 ovarian) was 3530 nM. For the same compound, the GI50 (BT-549 breast) was 1360 nM, the TGI (BT-549 breast) was 2790 nM and the GI50 (PC-3 prostate) was 2370 nM. The TGI (PC-3 prostate) was 7230 nM, the GI50 (UO-31 renal) was 1510 nM and the TGI (UO-31 renal) was 2910 nM. It also gave a GI50 (OVCAR-4 ovarian) of 1860 nM, a TGI (OVCAR-4 ovarian) of 4220 nM and a GI50 (MDA-MB-231 breast) of 399 nM. The TGI (MDA-MB-231 breast) was 1420 nM, the GI50 (RPMI-8226 leukemia) was 713 nM and the TGI (RPMI-8226 leukemia) was 5340 nM. The GI50 (A498 renal) was 18800 nM, the TGI (A498 renal) was 32800 nM and the GI50 (HCT-15 colon) was 212 nM. The TGI (HCT-15 colon) was 499 nM, the GI50 (786-0 renal) was 1780 nM and the TGI (786-0 renal) was 3270 nM. For the same compound, the GI50 (HCT-116 colon) was 382 nM, the TGI (HCT-116 colon) was 1570 nM and the GI50 (SF-539 CNS) was 1660 nM. For the same compound, the TGI (SF-539 CNS) was 3120 nM, the GI50 (CCRF-CEM leukemia) was 195 nM and the TGI (CCRF-CEM leukemia) was 1810 nM. It also gave a GI50 (RXF 393 renal) of 1560 nM and a TGI (RXF 393 renal) of 2990 nM.
